Data reported in ChEMBL document CHEMBL4376882, “Photodynamic Therapy for ras-Driven Cancers: Targeting G-Quadruplex RNA Structures with Bifunctional Alkyl-Modified Porphyrins” (J Med Chem, 2020).
Calls of active or inactive are those of the source. No cut-off for these calls is given here.

Assays:
PANC-1 [1] = experiment: Induction of apoptosis in human PANC1 cells assessed as viable cells at 15 nM and photoirradiated at 7.2 J/cm2 measured after 6 to 24 hrs by annexin-V-propidium iodide staining based FACScalibur flow cytometry analysis (reference value: 91.9 %); format: functional; details: PANC-1, light or radiation study, read-out: Activity
Quadruplex DNA [2] = experiment: Binding affinity to NRAS RNA g-quadruplex (unknown origin) by fluorescence spectroscopy; format: nucleic-acid assay
[3] = molecular target: GTPase KRas (Homo sapiens) (UniProt P01116); experiment: Inhibition of KRAS in human PANC1 cells assessed as downregulation of KRAS expression at 15 nM after 4 hrs by Western blot analysis; format: cell-based
GTPase KRas (Homo sapiens), sequence (P01116 whole entry, looked up): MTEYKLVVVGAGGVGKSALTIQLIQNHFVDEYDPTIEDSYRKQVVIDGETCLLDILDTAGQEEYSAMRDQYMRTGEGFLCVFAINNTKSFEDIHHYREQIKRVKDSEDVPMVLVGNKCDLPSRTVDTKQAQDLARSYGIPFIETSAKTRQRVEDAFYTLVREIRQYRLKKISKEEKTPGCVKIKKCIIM

[4] = Toxicity in SCID mouse xenografted with human PANC1 cells assessed as tissue damage around the irradiated tumor at 3 mg/kg administered intratumorally after 2 hrs photoirradiated by diode laser at 193 J/cm2; format: organism-based; details: in vivo, other
[5] = Binding affinity to NRAS RNA g-quadruplex (unknown origin) at 40 degree C by SPR analysis; format: nucleic-acid assay
[6] = Induction of ROS-mediated […] labelled 20-mer utr-c stem-loop RNA (unknown origin) degradation at 0.6 uM incubated for 30 mins followed by photoirradiation for 15 to 30 mins by PAGE analysis
Quadruplex DNA [7] = experiment: Induction of ROS-mediated […] labeled Ras RNA g-quadruplex (unknown origin) degradation assessed as increase in residual RNA g-quadruplex at 0.6 uM incubated for 30 mins in presence of NAC followed by photoirradiation for 15 to 30 mins by PAGE analysis relative to control; format: nucleic-acid assay
[8] = Induction of ROS-mediated Cys5.5 labelled utr-z RNA duplex (unknown origin) degradation at 0.6 uM incubated for 30 mins followed by photoirradiation for 15 to 30 mins by PAGE analysis
PANC-1 [9] = experiment: Induction of apoptosis in human PANC1 cells assessed as necrotic cells at 10 nM and photoirradiated at 7.2 J/cm2 measured after 6 to 24 hrs in presence of NAC by annexin-V-propidium iodide staining based FACScalibur flow cytometry analysis (reference value: 1 %); format: functional
PANC-1 [10] = experiment: Induction of apoptosis in human PANC1 cells assessed as early apoptotic cells at 15 nM and photoirradiated at 7.2 J/cm2 measured after 6 to 24 hrs in presence of NAC by annexin-V-propidium iodide staining based FACScalibur flow cytometry analysis (reference value: 3.1 %); format: functional
[11] = molecular target: GTPase KRas (Homo sapiens) (UniProt P01116); experiment: Inhibition of KRAS in human PANC1 cells assessed as decrease in KRAS mRNA level at 15 nM followed by 7.2 J/cm2 irradiation after 4 hrs by qRT-PCR analysis; format: cell-based
PANC-1 [12] = experiment: (§1) Induction of ROS generation in human PANC1 cells assessed as cleavage of CM-H2DCFDA to CM-H2DCF by intracellular esterase by measuring green fluorescence emission incubated for 16 hrs followed by 7.2J/cm2 photoirradiation and subsequent compound washout measured after 40 mins by CM-H2DCFDA staining-based FACSCalibur flow cytometry; format: functional, cell-based
Quadruplex DNA [13] = experiment: Binding affinity to human KRAS utr-z RNA g-quadruplex at 40 degree C by SPR analysis; format: nucleic-acid assay
PANC-1 [14] = experiment: Induction of apoptosis in human PANC1 cells assessed as necrotic cells at 5 nM and photoirradiated at 7.2 J/cm2 measured after 6 to 24 hrs in presence of NAC by annexin-V-propidium iodide staining based FACScalibur flow cytometry analysis (reference value: 1 %); format: functional
[15] = molecular target: GTPase NRas (Homo sapiens) (UniProt P01111); experiment: Inhibition of NRAS in human PANC1 cells assessed as decrease in NRAS mRNA level at 15 nM followed by 7.2 J/cm2 irradiation after 4 hrs by qRT-PCR analysis; format: cell-based
GTPase NRas (Homo sapiens), sequence (P01111 whole entry): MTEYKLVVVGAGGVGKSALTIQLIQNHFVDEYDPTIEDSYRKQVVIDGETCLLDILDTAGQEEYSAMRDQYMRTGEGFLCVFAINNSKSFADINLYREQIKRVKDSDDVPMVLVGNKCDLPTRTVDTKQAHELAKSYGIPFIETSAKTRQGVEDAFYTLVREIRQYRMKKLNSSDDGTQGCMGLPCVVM

PANC-1 [16] = experiment: as §1, with “cells” for “cells assessed as”, “hrs in presence of NAC” for “hrs”; format: functional, cell-based
[17] = Drug uptake in human PANC1 cells in presence of dynamin-inhibitor dynasore; format: ADME, cell-based; details: panc-1
[18] = Induction of ROS-mediated […] labelled 20-mer utr-z stem-loop RNA (unknown origin) degradation at 0.6 uM incubated for 30 mins followed by photoirradiation for 15 to 30 mins by PAGE analysis
Quadruplex DNA [19] = experiment: Binding affinity to human KRAS utr-z RNA g-quadruplex assessed as emission spectra at absorbance 650 to 715 nm 1 uM by fluorescence titration method; format: nucleic-acid assay
PANC-1 [20] = experiment: Cytotoxicity against human PANC1 cells assessed as reduction in metabolic activity at 20 nM after 24 to 72 hrs in dark followed by photoirradiation in presence of NADH by resazurin assay; format: functional, cell-based
PANC-1 [21] = experiment: Induction of apoptosis in human PANC1 cells assessed as necrotic cells at 15 nM and photoirradiated at 7.2 J/cm2 measured after 6 to 24 hrs by annexin-V-propidium iodide staining based FACScalibur flow cytometry analysis (reference value: 0.7 %); format: functional
[22] = Drug uptake in human PANC1 cells at 5 uM after 16 hrs by FACS analysis; format: ADME, cell-based; details: panc-1, 16 h
PANC-1 [23] = experiment: Induction of apoptosis in human PANC1 cells assessed as early apoptotic cells at 10 nM and photoirradiated at 7.2 J/cm2 measured after 6 to 24 hrs by annexin-V-propidium iodide staining based FACScalibur flow cytometry analysis (reference value: 4.6 %); format: functional
[24] = Induction of ROS-mediated […] labeled Ras RNA g-quadruplex (unknown origin) degradation at 0.6 uM incubated for 30 mins followed by photoirradiation for 15 to 30 mins by PAGE analysis
PANC-1 [25] = experiment: Induction of apoptosis in human PANC1 cells assessed as early apoptotic cells at 5 nM and photoirradiated at 7.2 J/cm2 measured after 6 to 24 hrs by annexin-V-propidium iodide staining based FACScalibur flow cytometry analysis (reference value: 4.6 %); format: functional
PANC-1 [26] = experiment: Induction of apoptosis in human PANC1 cells assessed as late apoptotic cells at 10 nM and photoirradiated at 7.2 J/cm2 measured after 6 to 24 hrs by annexin-V-propidium iodide staining based FACScalibur flow cytometry analysis (reference value: 2.7 %); format: functional
[27] = molecular target: GTPase NRas (Homo sapiens) (UniProt P01111); experiment: Inhibition of NRAS in human PANC1 cells assessed as downregulation of NRAS expression at 15 nM after 4 hrs by Western blot analysis; format: cell-based
[28] = Drug uptake in mouse NIH/3T3 cells at 5 uM and 4 degree C after 16 hrs by FACS analysis relative to 37 degree C; format: ADME, cell-based; details: nih3t3, 16 h
Quadruplex DNA [29] = experiment: Induction of ROS-mediated […] labeled Ras RNA g-quadruplex (unknown origin) degradation at 0.6 uM incubated for 30 mins in presence of NAC followed by photoirradiation for 15 to 30 mins by PAGE analysis; format: nucleic-acid assay
PANC-1 [30] = experiment: Induction of apoptosis in human PANC1 cells assessed as early apoptotic cells at 10 nM and photoirradiated at 7.2 J/cm2 measured after 6 to 24 hrs in presence of NAC by annexin-V-propidium iodide staining based FACScalibur flow cytometry analysis (reference value: 3.1 %); format: functional
[31] = Drug localization in cytoplasm of human PANC1 cells at 5 uM after 6 hrs by Hoechst staining based confocal microscopy; format: ADME, subcellular; details: panc-1, 6 h

CCCCCCCCCCCCCC[n+]1ccc(-c2c3nc(c(-c4cc[n+](C)cc4)c4ccc([nH]4)c(-c4cc[n+](C)cc4)c4nc(c(-c5cc[n+](C)cc5)c5ccc2[nH]5)C=C4)C=C3)cc1.[I-].[I-].[I-].[I-]
viability at 0.015 µM (PANC-1 [1]): 70.6% | Kd (Quadruplex DNA [2]): 107 nM | inhibition [3]: inactive | Activity [4]: Non-Toxic | Kd [5]: 56 to 98 nM | Activity [6]: inactive | Activity (Quadruplex DNA [7]): 50% | Activity [8]: inactive | Activity (PANC-1 [9]): 2.3% | Activity (PANC-1 [10]): 3.9% | inhibition [11]: Active | Activity (PANC-1 [12]): Dose-dependent effect | Kd (Quadruplex DNA [13]): 82 to 202 nM | Activity (PANC-1 [14]): 1.2% | inhibition [15]: Active | Activity (PANC-1 [16]): inactive | Drug uptake [17]: Not Active | Activity [18]: inactive | Activity (Quadruplex DNA [19]): Active | Activity (PANC-1 [20]): Active | Activity (PANC-1 [21]): 4.1% | Drug uptake [22]: Active | Activity (PANC-1 [23]): 4.8% | Activity [24]: Active | Activity (PANC-1 [25]): 5.1% | Activity (PANC-1 [26]): 10.9% | inhibition [27]: inactive | Drug uptake [28]: Active | Activity (Quadruplex DNA [29]): inactive | Activity (PANC-1 [30]): 3.7% | Drug uptake [31]: Active
